Literature values, collected in patent US20050201943A1, “Magnetic resonance imaging using contrast agents bioactivated by enzymatic cleavage” (Epix Medical, Inc.,. a Delaware corporation, priority 2000, published 2005).
Residues, ends and D or L forms follow the SMILES beside them. *: point of attachment. Bz = O=C(c1ccccc1)*

Key:
TAFI = target: T1, TAFI (Homo sapiens, UniProt Q96IY4); details: other TAFI substrate, given for comparison
T1 sequence (Q96IY4 115-423): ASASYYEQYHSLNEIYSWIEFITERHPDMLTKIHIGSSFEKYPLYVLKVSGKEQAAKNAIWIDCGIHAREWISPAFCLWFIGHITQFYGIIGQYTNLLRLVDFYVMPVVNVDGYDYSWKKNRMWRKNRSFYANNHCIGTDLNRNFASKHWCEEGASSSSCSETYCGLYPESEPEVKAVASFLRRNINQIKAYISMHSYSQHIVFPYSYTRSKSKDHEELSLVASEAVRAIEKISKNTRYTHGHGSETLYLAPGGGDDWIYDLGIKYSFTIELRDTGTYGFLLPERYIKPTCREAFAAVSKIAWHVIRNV

[1] = target: human serum albumin (HSA) (Homo sapiens, UniProt P02768); details: bound to HSA versus unbound in aqueous solution
Sequence of human serum albumin (HSA) (P02768 25-609): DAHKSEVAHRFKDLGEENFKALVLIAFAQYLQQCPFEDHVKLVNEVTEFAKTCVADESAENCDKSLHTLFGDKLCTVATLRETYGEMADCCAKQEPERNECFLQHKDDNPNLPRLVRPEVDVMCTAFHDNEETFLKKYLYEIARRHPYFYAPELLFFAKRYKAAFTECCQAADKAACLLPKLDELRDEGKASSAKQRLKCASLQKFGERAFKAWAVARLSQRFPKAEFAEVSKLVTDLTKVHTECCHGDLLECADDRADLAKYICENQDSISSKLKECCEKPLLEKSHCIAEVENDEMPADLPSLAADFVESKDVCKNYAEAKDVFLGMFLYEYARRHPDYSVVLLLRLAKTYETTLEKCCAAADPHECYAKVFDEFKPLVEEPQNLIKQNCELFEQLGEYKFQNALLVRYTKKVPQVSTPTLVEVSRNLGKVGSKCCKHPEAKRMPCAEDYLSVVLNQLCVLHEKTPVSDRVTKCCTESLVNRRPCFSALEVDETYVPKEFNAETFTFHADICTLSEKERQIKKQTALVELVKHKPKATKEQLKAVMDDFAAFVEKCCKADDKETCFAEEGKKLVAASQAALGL

For `N=C(N)NCCC[C@H](NC(=O)CNC(=O)c1ccccc1)C(=O)O` [hippuryl arginine] (Bz-Gly-Arg-OH), the Km (TAFI) is listed as 140 µM and the kcat (TAFI) is listed as 21 s⁻¹.

In the case of `O=C([O-])CN(CCN(CC(=O)[O-])C[C@H](COP(=O)([O-])OC1CCC(c2ccccc2)(c2ccccc2)CC1)N(CC(=O)[O-])CC(=O)[O-])CC(=O)[O-].[Gd+3].[H+].[H+].[H+]` [MS-325], the “increase in relaxivity of the protein-bound form compared to the unbound contrast agent” value [1] is given as “seven to eight times”.
